Reference: patent US7198945B2, “Cell having modified cell membrane” (Teruyuki Nagamune, priority 2001, dated 2007)
Entries after “also recorded” stand apart in the source; their conditions may differ.

Legend:
[1] = system: Chinese hamster ovarian follicle cell line CHO; assay: Anchoring of EGFP conjugate to cell membranes, observed by confocal laser scanning microscope; assay type: cell-based; parameters: Anchoring to cell surface: key to the marks not given beside the values
Text: Therefore, it was verified that the conjugate can be anchored to cells other than mouse cells.

[2] = system: suspended cells (32D, Ba/F3 and 9E10 cells); assay: Anchoring of EGFP conjugate to suspended cells, flow cytometer; assay type: cell-based, mouse; parameters: Anchoring to cell surface: key to the marks not given beside the values
Description: (§1) Mouse hybridoma 9E10 was cultured at 37° C. under 5% CO2 concentration using RPMI 1640 media (“Nissui” powder, NISSUI PHARMACEUTICAL CO., LTD., Cat# 05918) supplemented with 10% fetal calf serum. […] 32D, Ba/F3 and 9E10 cells (hereinafter, generically called as “suspended cells”) were centrifuged to collect 1×10^6 cells. Each of the cell was centrifuged for washing with 13 mL of phosphate buffered saline. […] Then the cells were centrifuged for washing once with 13 mL of phosphate buffered saline, and then 1 mL of phosphate buffered saline was added to each cell pellet.
(§2) Respective treated cell suspensions were observed under a flow cytometer (Coulter, EPICS-C). […] Thus, it was verified that the polyethylene oxide oleylether-EGFP can be anchored to suspended cells.

[3] = system: mouse hybridoma 9E10; assay: Flow cytometer fluorescence intensity of treated suspended cells; assay type: cell-based; details: 37° C. for 5 min
Description: as §1, §2

[4] = system: mouse myeloid cell line 32D; assay: as above; assay type: cell-based; details: 37° C. for 5 min
Description: as §1, §2

[5] = system: mouse pro-B cell line Ba/F3; assay: as above; assay type: cell-based; details: 37° C. for 5 min
Description: as §1, §2

[6] = system: mouse fibroblast cell line NIH3T3; assay: Anchoring of conjugates to cell membranes, observed by confocal laser scanning microscope; details: for Anchoring to cell surface: Mouse fibroblasts NIH3T3, 37° C. for 5 min, confocal microscope, 1000 magnifications
Description: Mouse fibroblasts NIH3T3 were cultured at 37° C. under 5% CO2 concentration using Dulbecco's Modified Eagle's Medium supplemented with 10% fetal calf serum and Glass bottom Microwell Dishes (35 mm dish, Uncoated, No. 0 Coverslip). The cells were cultured until the culture was approximately 80% confluent for 20 hours to 45 hours. […] The Glass bottom Microwell Dishes with NIH3T3 cells attached thereto were rinsed with 2 mL of phosphate buffered saline (the same as described above) which was subjected to filtration sterilization beforehand. Then, 0.1 mL of the polyethylene oxide oleylether-biotin conjugate solution was added to the NIH3T3 cells attached on the glass surface and a reaction was performed at 37° C. for 5 min. After the reaction, the cells were washed twice with 2 mL of phosphate buffered saline. Then, 0.1 mL of phosphate buffered saline containing 6.7 nM streptavidin and fluorescein conjugate (Molecular Probes; Cat# S-869) (hereinafter referred to as “fluorescein-labeled streptavidin”) was added to the cells, followed by incubation at 37° C. for 20 min.
The modification of the cell membranes was verified by observing the cells under a confocal laser scanning microscope (Leica).

[7] = NIH3T3, confocal laser scanning microscope

Compound | Anchoring to cell surface [6] | fluorescence on cell membranes / anchoring (result in words) [6, 7] | further results
Polyethylene Oxide Oleylether (n=90, Average Molecular Weight of 4400)-Green Fluorescent Protein EGFP Conjugate [Example 4] | ++ | anchored to the cell membranes | fluorescence from EGFP on cell membranes (result in words) ([1]; CHO cells, confocal laser scanning microscope): fluorescence from EGFP was observed on the cell membranes of all of the CHO cells; Anchoring to cell surface ([1]; Chinese hamster ovarian follicle cells CHO, confocal microscope): ++; Anchoring to cell surface ([2]; Suspended cell): ++; fluorescence intensity of cells compared to cells treated only with EGFP (result in words) ([2]; suspended cells, flow cytometer): an increased number of the cells with a stronger fluorescence intensity was observed; relative value of fluorescence intensity of cells [3]: 49.6; relative value of fluorescence intensity of cells [4]: 30.1; relative value of fluorescence intensity of cells [5]: 36.7
Polyethylene Oxide Stearyl Ether (n=15: Average Molecular Weight of 1100)-biotin Conjugates [Example 10] | + | fluorescence from fluorescein was observed on the cell membranes of the NIH3T3 cells | 
Polyethylene Oxide Nonylphenyl Ether (n=40, Average Molecular Weight of 2160)-biotin Conjugate [Example 17, reference compound] | − | no fluorescence from fluorescein was observed | 
Amino Polyethylene Oxide Oleylether (n=90, Average Molecular Weight of 4400)-biotin Conjugate [Example 12] | ++ | remain unchanged and still excellent | 
Oleic Acid-biotin [Example 15, reference compound] | − | no fluorescence from fluorescein was observed | 
polyethylene oxide oleylether succinate [reference compound] |  | no fluorescence from fluorescein was observed | 
Polyethylene Oxide Oleylether (n=40; Average Molecular Weight of 2250)-biotin Conjugates [Example 8] | ++ |  | 
Polyethylene Oxide Oleylether (n=15; Average Molecular Weight of 1100)-biotin Conjugates [Example 7] | ++ |  | 
Fluorescent-Labeled (Fluorescein)-Polyethylene Oxide-Modified Dioleoyl Phosphatidyl Ethanolamine [Example 11] | ++ | Fluorescence from fluorescein was observed on the cell membranes of all the NIH3T3 cells | 
Polyethylene Oxide Oleylether (n=180; Average Molecular Weight of 8400)-biotin Conjugates [Example 9] | ++ |  | 
Polyethylene Oxide Oleylether (n=90, Average Molecular Weight of 4400)-biotin Conjugate [Example 2] | ++ |  | time in which conjugates were anchored to all of the cell membranes ([6]; NIH3T3, 37° C.): ≤ 5 min; fluorescence on cell membranes / anchoring (result in words) ([6]; NIH3T3; confocal laser scanning microscope; average molecular weight of 4400)-biotin co): fluorescence deriving from fluorescein was observed on the cell membranes of all of the cells in the field; also recorded: fluorescence from fluorescein was specifically observed only in the cell membranes; binding of biotin to streptavidin after anchoring ([6]; NIH3T3, fluorescein-labeled streptavidin): not inhibited
NCCOCCOCCNC(=O)CCCC[C@@H]1SC[C@@H]2NC(=O)N[C@@H]21 [biotin-NH2, Biotin-PEO-Amine, reference compound] |  | no fluorescence from fluorescein was observed | 
